Results: the supplement of paper PMC10307832

Columns and labels:
Assay in all cases: relative viability (nuclei count vs DMSO), 5 days (fraction); higher = more cells survive
[1] = test system: COR-L 105
How it was run: (§1)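 Lung cancer cell lines, seeded in 1536-well plates, were treated the following day by pin tool with a single drug or with five library-drug doses (not always all listed) in √10 steps on top of a fixed anchor-drug dose. Cells were fixed and nuclei stained in one step after 5 days, and nuclei were counted. Relative viability is the nuclei count for treated wells divided by that for vehicle wells, reported as medians of duplicate plates.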

[2] = test system: COR-L23
How it was run: as §1

[3] = test system: HARA
How it was run: as §1

[4] = test system: HCC-15
How it was run: as §1

[5] = test system: HOP-62
How it was run: as §1

[6] = test system: NCI-H1355
How it was run: as §1

[7] = test system: NCI-H1395
How it was run: as §1

[8] = test system: NCI-H1734
How it was run: as §1

[9] = test system: NCI-H1755
How it was run: as §1

[10] = test system: NCI-H1793
How it was run: as §1

[11] = test system: NCI-H1993
How it was run: as §1

[12] = test system: NCI-H2009
How it was run: as §1

[13] = test system: NCI-H2170
How it was run: as §1

[14] = test system: NCI-H2228
How it was run: as §1

[15] = test system: NCI-H2347
How it was run: as §1

[16] = test system: NCI-H358
How it was run: as §1

[17] = test system: NCI-H522
How it was run: as §1

[18] = test system: NCI-H647
How it was run: as §1

[19] = test system: NCI-H838
How it was run: as §1

[20] = test system: SK-MES-1
How it was run: as §1

[21] = test system: UMC-11
How it was run: as §1

CCN(CC)CCCCNc1ncc2cc(-c3cc(OC)cc(OC)c3)c(NC(=O)NC(C)(C)C)nc2n1 + O=C(CCCCCCC(=O)Nc1ccccc1)NO [Vorinostat] (partner 1 µM) showed a relative viability ([1]; first compound 0.01 µM) of 0.771, a relative viability ([1]; first compound 0.03162 µM) of 0.774 and a relative viability ([1]; first compound 0.1 µM) of 0.981. For the same compound, the relative viability ([1]; first compound 0.3162 µM) was 0.796, the relative viability ([1]; first compound 1 µM) was 0.805 and the relative viability ([2]; first compound 0.01 µM) was 0.467. It also gave a relative viability ([2]; first compound 0.03162 µM) of 0.495, a relative viability ([2]; first compound 0.1 µM) of 0.379 and a relative viability ([2]; first compound 0.3162 µM) of 0.593. It also gave a relative viability ([2]; first compound 1 µM) of 0.434, a relative viability ([3]; first compound 0.01 µM) of 0.406 and a relative viability ([3]; first compound 0.03162 µM) of 0.483. The relative viability ([3]; first compound 0.1 µM) was 0.528, the relative viability ([3]; first compound 0.3162 µM) was 0.51 and the relative viability ([3]; first compound 1 µM) was 0.365. The relative viability ([4]; first compound 0.01 µM) was 0.857, the relative viability ([4]; first compound 0.03162 µM) was 0.849 and the relative viability ([4]; first compound 0.1 µM) was 0.867. It also gave a relative viability ([4]; first compound 0.3162 µM) of 0.929, a relative viability ([4]; first compound 1 µM) of 0.836 and a relative viability ([5]; first compound 0.01 µM) of 0.715. The relative viability ([5]; first compound 0.03162 µM) was 0.595, the relative viability ([5]; first compound 0.1 µM) was 0.616 and the relative viability ([5]; first compound 0.3162 µM) was 0.65. The relative viability ([5]; first compound 1 µM) was 0.663, the relative viability ([6]; first compound 0.01 µM) was 0.647 and the relative viability ([6]; first compound 0.03162 µM) was 0.654. For the same compound, the relative viability ([6]; first compound 0.1 µM) was 0.67, the relative viability ([6]; first compound 0.3162 µM) was 0.657 and the relative viability ([6]; first compound 1 µM) was 0.616. The relative viability ([7]; first compound 0.01 µM) was 0.648, the relative viability ([7]; first compound 0.03162 µM) was 0.786 and the relative viability ([7]; first compound 0.1 µM) was 0.714. It also gave a relative viability ([7]; first compound 0.3162 µM) of 0.742, a relative viability ([7]; first compound 1 µM) of 0.513 and a relative viability ([8]; first compound 0.01 µM) of 0.849. The relative viability ([8]; first compound 0.03162 µM) was 0.874, the relative viability ([8]; first compound 0.1 µM) was 0.974 and the relative viability ([8]; first compound 0.3162 µM) was 0.864. For the same compound, the relative viability ([8]; first compound 1 µM) was 0.757, the relative viability ([9]; first compound 0.01 µM) was 0.71 and the relative viability ([9]; first compound 0.03162 µM) was 0.919. For the same compound, the relative viability ([9]; first compound 0.1 µM) was 0.848, the relative viability ([9]; first compound 0.3162 µM) was 0.965 and the relative viability ([9]; first compound 1 µM) was 0.746. The relative viability ([10]; first compound 0.01 µM) was 0.724, the relative viability ([10]; first compound 0.03162 µM) was 0.707 and the relative viability ([10]; first compound 0.1 µM) was 0.898. For the same compound, the relative viability ([10]; first compound 0.3162 µM) was 0.816, the relative viability ([10]; first compound 1 µM) was 0.599 and the relative viability ([11]; first compound 0.01 µM) was 0.776. It also gave a relative viability ([11]; first compound 0.03162 µM) of 0.726, a relative viability ([11]; first compound 0.1 µM) of 0.899 and a relative viability ([11]; first compound 0.3162 µM) of 0.882. For the same compound, the relative viability ([11]; first compound 1 µM) was 0.695, the relative viability ([12]; first compound 0.01 µM) was 0.731 and the relative viability ([12]; first compound 0.03162 µM) was 0.749. The relative viability ([12]; first compound 0.1 µM) was 0.78, the relative viability ([12]; first compound 0.3162 µM) was 0.78 and the relative viability ([12]; first compound 1 µM) was 0.624. For the same compound, the relative viability ([13]; first compound 0.01 µM) was 0.782, the relative viability ([13]; first compound 0.03162 µM) was 0.92 and the relative viability ([13]; first compound 0.1 µM) was 0.983. For the same compound, the relative viability ([13]; first compound 0.3162 µM) was 0.969, the relative viability ([13]; first compound 1 µM) was 0.776 and the relative viability ([14]; first compound 0.01 µM) was 0.643. The relative viability ([14]; first compound 0.03162 µM) was 0.515, the relative viability ([14]; first compound 0.1 µM) was 0.807 and the relative viability ([14]; first compound 0.3162 µM) was 0.794. For the same compound, the relative viability ([14]; first compound 1 µM) was 0.595, the relative viability ([15]; first compound 0.01 µM) was 0.509 and the relative viability ([15]; first compound 0.03162 µM) was 0.543. The relative viability ([15]; first compound 0.1 µM) was 0.705, the relative viability ([15]; first compound 0.3162 µM) was 0.588 and the relative viability ([15]; first compound 1 µM) was 0.472. The relative viability ([16]; first compound 0.01 µM) was 0.684, the relative viability ([16]; first compound 0.03162 µM) was 0.879 and the relative viability ([16]; first compound 0.1 µM) was 0.813. It also gave a relative viability ([16]; first compound 0.3162 µM) of 0.806, a relative viability ([16]; first compound 1 µM) of 0.583 and a relative viability ([17]; first compound 0.01 µM) of 0.891. It also gave a relative viability ([17]; first compound 0.03162 µM) of 0.835, a relative viability ([17]; first compound 0.1 µM) of 1.19 and a relative viability ([17]; first compound 0.3162 µM) of 0.948. It also gave a relative viability ([17]; first compound 1 µM) of 0.962, a relative viability ([18]; first compound 0.01 µM) of 0.525 and a relative viability ([18]; first compound 0.03162 µM) of 0.645. The relative viability ([18]; first compound 0.1 µM) was 0.582, the relative viability ([18]; first compound 0.3162 µM) was 0.511 and the relative viability ([18]; first compound 1 µM) was 0.491. It also gave a relative viability ([19]; first compound 0.01 µM) of 0.669, a relative viability ([19]; first compound 0.03162 µM) of 0.732 and a relative viability ([19]; first compound 0.1 µM) of 0.779. The relative viability ([19]; first compound 0.3162 µM) was 0.69, the relative viability ([19]; first compound 1 µM) was 0.592 and the relative viability ([20]; first compound 0.01 µM) was 1.15. It also gave a relative viability ([20]; first compound 0.03162 µM) of 1.17, a relative viability ([20]; first compound 0.1 µM) of 1.22 and a relative viability ([20]; first compound 0.3162 µM) of 1.52. It also gave a relative viability ([20]; first compound 1 µM) of 1.19, a relative viability ([21]; first compound 0.01 µM) of 0.4 and a relative viability ([21]; first compound 0.03162 µM) of 0.36. The relative viability ([21]; first compound 0.1 µM) was 0.361, the relative viability ([21]; first compound 0.3162 µM) was 0.394 and the relative viability ([21]; first compound 1 µM) was 0.311.
